Assay results: patent publication US7592467B2, “Inhibitors of prolyl endopeptidase” (Probiodrug AG, priority 2005, dated 2009)

What was measured:
human glial U-343 cells = experiment: IL-6 ELISA, basal secretion of IL-6; type: cell-based; details: inhibitor 20 μM, 24 hours, serum-free medium, untreated control = 100%, read-out: Extracellular IL-6 concentration, % of untreated cells
Description: To analyze basal secretion of IL-6, human glial U-343 cells were cultured in 6 well plates (1.5×10^6 cells/well, Greiner) and treated with specific PEP inhibitors as indicated (20 μM each) for 24 hours in serum-free D-MEM medium (invitrogen). Aliquots of 40 μl conditioned medium were used to quantify the amount of secreted IL-6 by an human-specific IL-6 ELISA (Biosource) following the manufacturer's instructions. All data were obtained in quadruplicate. For the calculation of the IL-6 concentration in the cell culture medium after PEP-inhibitor treatment, the basal IL-6 concentration of the cell culture medium of untreated cell samples was set to 100%. The results of the measurement of the IL-6 concentration with PEP-inhibitor treated cells are presented as % of the untreated cell samples.

U-343 and SH-SY5Y cells = experiment: β-Amyloid ELISA, secreted β-amyloid peptides 1-40 and 1-42; type: cell-based; details: Homo sapiens, inhibitor 20 μM, 24 hours, conditioned medium, untreated cells = 100%, cell line and peptide (1-40/1-42) not given, read-out: Extracellular Aβ-concentration, % of control
Description: The human glioma cell line, U-343 and the human neuroblastoma cell line, SH-SY5Y were maintained in Dulbecco's modified Eagle's medium (DMEM) containing 10% fetal bovine serum (Gibco BRL, Karlsruhe, Germany) and incubated at 37° C. in a 5% CO2 atmosphere. Culture media contained in general 60 μg/ml gentamycin (Gibco BRL, Karlsruhe, Germany).
To quantify intracellular and extracellular concentrations of 0-amyloid peptides, 1-40 and 1-42, U-343 and SH-SY5Y cells were cultured in 6 well plates (1.5×10^6 cells/well) and treated with specific PEP inhibitors (20 μM each) for 24 hours. For quantitation of secreted β-amyloid peptides the conditioned medium was collected and concentrated by lyophylisation. Likewise, after determination of the cell numbers/well (casy cell counter I, Schärfe System, Reutlingen, Germany), cells were lyzed with cell extraction buffer (Biosource, Solingen, Germany) according to the manufacturer's protocol. The protein concentration was determined by the method of Bradford (1976). Aliquots of 100 μl were used to quantify β-amyloid peptides 1-40 and 1-42 in quadruplicate by ELISA (IBL, Hamburg, Germany) following the manufacturer's instructions. All obtained intracellular and extracellular concentrations were normalized to cell numbers and protein concentration, respectively.
For the calculation of the concentration of β-amyloid peptides 1-40 and 1-42 in the cell culture medium after PEP-inhibitor treatment, the basal concentration of β-amyloid peptides 1-40 and 1-42 in the cell culture medium of untreated cell samples was set to 100%. The results of the measurement of the concentration of β-amyloid peptides 1-40 and 1-42 with PEP-inhibitor treated cells are presented as % of the untreated cell samples.

| SMILES | activity at 20 µM (human glial U-343 cells) [%] | activity at 20 µM (U-343 and SH-SY5Y cells) [%] |
| --- | --- | --- |
| O=C(OCCc1ccccc1)[C@@H]1CCCC[C@H]1C(=O)c1cccs1 (relative stereo) [Example 27, trans-1-(Thienylcarbonyl)-2-(phenyl-ethyl-oxycarbonyl)-cyclohexane] | 19.6 | 298 |
| O=C(OCc1ccccc1)c1ccccc1C(=O)c1cccs1 [Example 1] | 92.6 | 197 |
| O=C(OCCc1ccccc1)c1ccccc1C(=O)c1cccs1 [Example 2] | 65.5 | 214 |
| O=C(OCc1ccc([N+](=O)[O-])cc1)c1ccccc1C(=O)c1cccs1 [Example 3] | 245 | 141 |
| O=C(OCC1c2ccccc2-c2ccccc21)c1ccccc1C(=O)c1cccs1 [Example 4, 2-(Fluorenyl-methyl-oxycarbonyl)-phenylthenon] | 40.7 | 200 |
| O=C(OCCc1ccc([N+](=O)[O-])cc1)c1ccccc1C(=O)c1cccs1 [Example 5, 2-(4-Nitrophenyl-ethyl-oxycarbonyl)-phenylthenon] | 102 | 160 |
| Cc1cccc(CCOC(=O)c2ccccc2C(=O)c2cccs2)c1 [Example 6] | 45.8 | 215 |
| O=C(OC1Cc2ccccc2C1)c1ccccc1C(=O)c1cccs1 [Example 7, 2-([2,3-Dihydro-1H-indene-2-yl]-oxycarbonyl)-phenylthenon] | 85.3 | 205 |
| O=C(OCCc1ccc2ccccc2c1)c1ccccc1C(=O)c1cccs1 [Example 8] | 93.7 | 165 |
| O=C(OCCN1C(=O)c2ccccc2C1=O)c1ccccc1C(=O)c1cccs1 [Example 10, 2-(Isoindolinyl-1,3-dione-ethyl-oxycarbonyl)-phenylthenon] | 143 | 125 |
| O=C(OCCCc1ccccc1)c1ccccc1C(=O)c1cccs1 [Example 11] | 42.4 | 192 |
| O=C(OCCc1cccc(Cl)c1)c1ccccc1C(=O)c1cccs1 [Example 12] | 53.7 | 191 |
| O=C(OCc1ccco1)c1ccccc1C(=O)c1cccs1 [Example 13, 2-(Furyl-methyl-oxycarbonyl)-phenylthenon] | 74.2 | 122 |
| O=C(OCCc1cccs1)c1ccccc1C(=O)c1cccs1 [Example 14, 2-(Thienyl-ethyl-oxycarbonyl)-phenylthenon] | 41.4 | 200 |
| O=C(OCCc1ccccc1)c1ccccc1C(=O)c1ccco1 [Example 15, 2-(Phenyl-ethyl-oxycarbonyl)-1-(furylcarbonyl)-benzol] | 48.2 | 144 |
| Cc1ccc(CCOC(=O)c2ccccc2C(=O)c2cccs2)cc1 [Example 16, 2-(4-Methylphenylethyl-oxycarbonyl)-phenylthenon] | 26.7 | 180 |
| O=C(OCCc1ccsc1)c1ccccc1C(=O)c1cccs1 [Example 17] | 26.5 | 237 |
| O=C(OCc1ccc(Cl)cc1)c1ccccc1C(=O)c1cccs1 [Example 19, 2-(4-Chlorophenyl-methyl-oxycarbonyl)-phenylthenon] | 35.2 | 195 |
| O=C(OCc1cccc(Cl)c1)c1ccccc1C(=O)c1cccs1 [Example 20] | 49.2 | 180 |
| O=C(OCc1ccccc1Cl)c1ccccc1C(=O)c1cccs1 [Example 21] | 62.1 | 220 |
| O=C(OCc1cccc([N+](=O)[O-])c1)c1ccccc1C(=O)c1cccs1 [Example 22] | 103 | 153 |
| O=C(OCc1ccccc1[N+](=O)[O-])c1ccccc1C(=O)c1cccs1 [Example 23] | 109 | 240 |

| SMILES | activity at 20 µM (human glial U-343 cells) [%] | activity at 20 µM (U-343 and SH-SY5Y cells) [%] |
| --- | --- | --- |
| O=C(OCCc1cc2ccccc2s1)c1ccccc1C(=O)c1cccs1 [Example 24, 2-(Benzo[b]thiophen-2-yl-ethyl-oxycarbonyl)-phenylthenon] | 66.9 | 165 |
| O=C(OCCCc1cccs1)c1ccccc1C(=O)c1cccs1 [Example 25] | 69 | 197 |
| O=C(OCCc1ccccc1Cl)c1ccccc1C(=O)c1cccs1 [Example 26] | 36.6 | 207 |
| O=C(OCCc1ccccc1)[C@H]1CCCC[C@H]1C(=O)c1cccs1 [Example 28] | 78.8 |  |
| O=C(NCc1ccccc1)c1ccccc1C(=O)c1cccs1 [Example 29, 2-(Phenylmethyl-amincarbonyl)-phenylthenon] | 121 | 109 |
| O=C(NCCc1ccccc1)c1ccccc1C(=O)c1cccs1 [Example 30] | 42.3 | 205 |
| O=C(NCCCc1ccccc1)c1ccccc1C(=O)c1cccs1 [Example 31] | 30 | 203 |
| O=C(NCCc1ccccc1)c1ccccc1C(=O)c1ccco1 [Example 32] | 32 | 63.9 |
| O=C(OCCc1ccccc1[N+](=O)[O-])c1ccccc1C(=O)c1cccs1 [Example 33] | 54.5 |  |
| O=C(OCCc1cccc([N+](=O)[O-])c1)c1ccccc1C(=O)c1cccs1 [Example 34] | 78.8 |  |
| COc1cccc(CCOC(=O)c2ccccc2C(=O)c2cccs2)c1 [Example 35] | 46.7 |  |
| O=C(OCc1cccc(C(F)(F)F)c1)c1ccccc1C(=O)c1cccs1 [Example 36] | 79.8 |  |
| O=C(OCCc1ccc(Cl)cc1)c1ccccc1C(=O)c1cccs1 [Example 37] | 72.5 |  |
| O=C(OCCc1cccc(F)c1)c1ccccc1C(=O)c1cccs1 [Example 38] | 33 |  |
| CCCCCCOC(=O)c1ccccc1C(=O)c1cccs1 [Example 39] | 50.2 |  |
| O=C(OCc1ccccc1Br)c1ccccc1C(=O)c1cccs1 [Example 40] | 36 |  |
| O=C(OCc1ccccc1F)c1ccccc1C(=O)c1cccs1 [Example 41] | 46.4 |  |
| O=C(OCc1ccc(F)cc1)c1ccccc1C(=O)c1cccs1 [Example 42] | 32.4 |  |
| O=C(OCCc1ccc(F)cc1)c1ccccc1C(=O)c1cccs1 [Example 43] | 29.2 |  |
| O=C(OCc1cccc(Cl)c1Cl)c1ccccc1C(=O)c1cccs1 [Example 44] | 26.5 |  |
| O=C(NC1CC1c1ccccc1)c1ccccc1C(=O)c1cccs1 (stereo not shown) [Example 45] | 22 |  |
| O=C(OCCc1cccc(O)c1)c1ccccc1C(=O)c1cccs1 [Example 46] | 35.8 |  |
